Patent US9708267B2, “Activators of human pyruvate kinase” (The United States of America, as represented by the …, priority 2010, dated 2017)
Read-outs that look alike come from different tables or passages of the source.

Target: hPK, M2 (Homo sapiens, UniProt P14618)
Assay: luminescent pyruvate kinase-luciferase coupled assay (qHTS)
Assay type: biochemical
Details: mean of three replicate experiments; for AC50: 0.1 mM ADP, 0.5 mM PEP, read-out: hPK, M2 AC50; for activation at 57 µM: % activation at 57 μM of compound, read-out: hPK, M2 Max. Res.
Procedure: AC50 values were determined utilizing the luminescent pyruvate kinase-luciferase coupled assay (Inglese, J. et al, Quantitative high-throughput screening: a titration-based approach that efficiently identifies biological activities in large chemical libraries. Proc. Natl. Acad. Sci. U.S.A. 2006, 103, 11473-11478).
Luminescent Pyruvate Kinase-Luciferase Coupled Assay.
Production of a luminescent signal based on the generation of ATP by pyruvate kinase was determined by using the ATP-dependent enzyme firefly luciferase. Three μL of substrate mix (at r.t.) in assay buffer (50 mM imidazole pH 7.2, 50 mM KCl, 7 mM MgCl2, 0.01% tween 20, 0.05% BSA) was dispensed into Kalypsys (San Diego, Calif., USA) white solid bottom 1,536 well microtiter plates using a bottle-valve solenoid-based dispenser (Kalypsys). The final concentrations of substrates in the assay were 0.1 mM ADP and 0.5 mM PEP. Twenty-three nL of compound in DMSO were delivered with a 1,536-pin array tool, and 1 μL of enzyme mix in assay buffer (final concentration, 0.1 nM pyruvate kinase, 50 mM imidazole pH 7.2, 0.05% BSA, 4° C.) was added. Microtiter plates were incubated at r.t. for 1 hour and 2 uL of luciferase detection mix (Kinase-Glo from Promega, Madison, Wis., USA) at 4° C. protected from light, was added and luminescence was read with a ViewLux (Perkin Elmer, Waltham, Mass., USA) using a 2 second exposure/plate (with 2× binning). The final concentration of DMSO was 0.5% and found not to affect the assay signal.
Data was normalized for AC50 values to control columns containing uninhibited enzyme (n), and AC100 inhibition (i) according the following equation: Activation (%)=[(c−n)/(n−i)]*100 where c=compound, n=DMSO neutral, i=no enzyme control. A % activity of 100% is approximately a 2-fold increase over basal assay signal (% Activation by FBP was variable but averaged 100%). Monitoring of activation was accomplished using enzyme at 3× the final concentration.
All compounds were screened using a qHTS approach, where compounds are assayed using at least seven concentrations to generate concentration-response curves for every compounds. Briefly, qHTS uses an inter-plate dilution method where the first plate contains the highest concentration of a set of compounds in DMSO, while subsequent plates contain the same compounds in the same well locations, but at successive lower concentrations. Using the protocol outlined above, the rate was calculated as a plate throughput of 18 plates/hr or approximately 7 samples/sec on the Kalypsys robotic system which means that a 7 point CRC was obtained every second on the robotic system.

Sequence of hPK, M2 (P14618 whole entry): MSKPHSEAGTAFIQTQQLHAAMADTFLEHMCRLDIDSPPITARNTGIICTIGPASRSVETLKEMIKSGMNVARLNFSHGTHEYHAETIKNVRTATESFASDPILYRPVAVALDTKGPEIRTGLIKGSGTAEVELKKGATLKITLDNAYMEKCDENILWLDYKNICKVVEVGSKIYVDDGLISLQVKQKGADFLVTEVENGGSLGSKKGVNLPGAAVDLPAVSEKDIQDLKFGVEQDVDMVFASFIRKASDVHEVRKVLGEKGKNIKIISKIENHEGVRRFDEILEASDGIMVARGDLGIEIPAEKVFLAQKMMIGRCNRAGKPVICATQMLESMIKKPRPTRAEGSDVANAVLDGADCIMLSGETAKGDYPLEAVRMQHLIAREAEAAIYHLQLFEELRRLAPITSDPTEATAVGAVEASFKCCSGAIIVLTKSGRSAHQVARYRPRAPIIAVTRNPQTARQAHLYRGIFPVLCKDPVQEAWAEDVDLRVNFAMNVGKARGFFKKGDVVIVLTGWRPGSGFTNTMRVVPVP

| Compound | AC50 (Table 2) [µM] | activation at 57 µM (Table 2) [%] | further results |
| --- | --- | --- | --- |
| Cc1ccc(NS(=O)(=O)c2ccc3c(c2)CC(=O)N3)cc1C [Compound 5, N-(3,4-dimethylphenyl)-2-oxoindoline-5-sulfonamide] | – | – | AC50 (Table 1): 14.5 µM; activation at 57 µM (Table 1): 130% |
| Cc1ccc(NS(=O)(=O)c2ccc3c(c2)CCCC(=O)N3)cc1C [Compound 6, N-(3,4-dimethylphenyl)-2-oxo-2,3,4,5-tetrahydro-1H-benzo[b]azepine-7-sulfonamide] | – | – | AC50 (Table 1): 18 µM; activation at 57 µM (Table 1): 66% |
| Cc1ccc(NS(=O)(=O)c2ccc3c(c2)NC(=O)CO3)cc1C [Compound 7, N-(3,4-dimethylphenyl)-3-oxo-3,4-dihydro-2H-benzo[b][1,4]oxazine-6-sulfonamide] | – | – | AC50 (Table 1): 20 µM; activation at 57 µM (Table 1): 93% |
| Cc1ccc(NS(=O)(=O)c2ccc3c(c2)N(C)C(=O)CO3)cc1C [Compound 8, N-(3,4-dimethylphenyl)-4-methyl-3-oxo-3,4-dihydro-2H-benzo[b][1,4]oxazine-6-sulfonamide] | – | – | AC50 (Table 1): 0.92 µM; activation at 57 µM (Table 1): 120% |
| Cc1ccc(NS(=O)(=O)c2ccc3[nH]c(=O)[nH]c3c2)cc1C [Compound 9, N-(3,4-dimethylphenyl)-2-oxo-2,3-dihydro-1H-benzo[d]imidazole-5-sulfonamide] | – | – | AC50 (Table 1): 21 µM; activation at 57 µM (Table 1): 59% |
| Cc1ccc(NS(=O)(=O)c2ccc3c(c2)n(C)c(=O)n3C)cc1C [Compound 10, N-(3,4-dimethylphenyl)-1,3-dimethyl-2-oxo-2,3-dihydro-1H-benzo[d]imidazole-5-sulfonamide] | – | – | AC50 (Table 1): 1.8 µM; activation at 57 µM (Table 1): 100% |
| CC(=O)N1CCc2cc(S(=O)(=O)Nc3ccc(C)c(C)c3)ccc21 [Compound 11, 1-acetyl-N-(3,4-dimethylphenyl)indoline-5-sulfonamide] | – | – | AC50 (Table 1): 1.8 µM; activation at 57 µM (Table 1): 65% |
| Cc1ccc(NS(=O)(=O)c2ccc3c(ccn3C)c2)cc1C [Compound 12, N-(3,4-dimethylphenyl)-1-methyl-1H-indole-5-sulfonamide] | – | – | AC50 (Table 1): 20 µM; activation at 57 µM (Table 1): 40% |
| O=C1CCc2cc(S(=O)(=O)Nc3cccc(Cl)c3)ccc2N1 [Compound 13, N-(3-chlorophenyl)-2-oxo-1,2,3,4-tetrahydroquinoline-6-sulfonamide] | 0.65 | 100 | – |
| Cc1cccc(NS(=O)(=O)c2ccc3c(c2)CCC(=O)N3)c1 [Compound 14, 2-oxo-N-m-tolyl-1,2,3,4-tetrahydroquinoline-6-sulfonamide] | 1.2 | 99 | – |
| COc1cccc(NS(=O)(=O)c2ccc3c(c2)CCC(=O)N3)c1 [Compound 15, N-(3-methoxyphenyl)-2-oxo-1,2,3,4-tetrahydroquinoline-6-sulfonamide] | 3.2 | 91 | – |
| O=C1CCc2cc(S(=O)(=O)Nc3cccc(F)c3)ccc2N1 [Compound 16, N-(3-fluorophenyl)-2-oxo-1,2,3,4-tetrahydroquinoline-6-sulfonamide] | 1.8 | 93 | – |
| O=C1CCc2cc(S(=O)(=O)Nc3cccc(C(F)(F)F)c3)ccc2N1 [Compound 17, 2-oxo-N-(3-(trifluoromethyl)phenyl)-1,2,3,4-tetrahydroquinoline-6-sulfonamide] | 13 | 96 | – |
| O=C1CCc2cc(S(=O)(=O)Nc3cccc(-c4ccccc4)c3)ccc2N1 [Compound 18, N-(biphenyl-3-yl)-2-oxo-1,2,3,4-tetrahydroquinoline-6-sulfonamide] | 14 | 13 | – |
| O=C1CCc2cc(S(=O)(=O)Nc3cccnc3)ccc2N1 [Compound 19, 2-oxo-N-(pyridin-3-yl)-1,2,3,4-tetrahydroquinoline-6-sulfonamide] | 23 | 36 | – |
| O=C1CCc2cc(S(=O)(=O)Nc3ccc(Cl)cc3)ccc2N1 [Compound 20, N-(4-chlorophenyl)-2-oxo-1,2,3,4-tetrahydroquinoline-6-sulfonamide] | 3.2 | 94 | – |
| Cc1ccc(NS(=O)(=O)c2ccc3c(c2)CCC(=O)N3)cc1 [Compound 21, 2-oxo-N-p-tolyl-1,2,3,4-tetrahydroquinoline-6-sulfonamide] | 4.1 | 110 | – |
| COc1ccc(NS(=O)(=O)c2ccc3c(c2)CCC(=O)N3)cc1 [Compound 22, N-(4-methoxyphenyl)-2-oxo-1,2,3,4-tetrahydroquinoline-6-sulfonamide] | 36 | 47 | – |
| O=C1CCc2cc(S(=O)(=O)Nc3ccc(F)cc3)ccc2N1 [Compound 23, N-(4-fluorophenyl)-2-oxo-1,2,3,4-tetrahydroquinoline-6-sulfonamide] | 10 | 99 | – |
| Cc1ccccc1NS(=O)(=O)c1ccc2c(c1)CCC(=O)N2 [Compound 24, 2-oxo-N-o-tolyl-1,2,3,4-tetrahydroquinoline-6-sulfonamide] | 3.9 | 96 | – |
| COc1ccccc1NS(=O)(=O)c1ccc2c(c1)CCC(=O)N2 [Compound 25, N-(2-methoxyphenyl)-2-oxo-1,2,3,4-tetrahydroquinoline-6-sulfonamide] | 21 | 60 | – |
| O=C1CCc2cc(S(=O)(=O)Nc3ccccc3F)ccc2N1 [Compound 26, N-(2-fluorophenyl)-2-oxo-1,2,3,4-tetrahydroquinoline-6-sulfonamide] | 7.3 | 85 | – |
| O=C1CCc2cc(S(=O)(=O)Nc3ccc4ccccc4c3)ccc2N1 [Compound 27, N-(naphthalen-2-yl)-2-oxo-1,2,3,4-tetrahydroquinoline-6-sulfonamide] | 2.9 | 87 | – |
| O=C1CCc2cc(S(=O)(=O)Nc3cccc4ccccc34)ccc2N1 [Compound 28, N-(naphthalen-1-yl)-2-oxo-1,2,3,4-tetrahydroquinoline-6-sulfonamide] | 10 | 101 | – |
| O=C1CCc2cc(S(=O)(=O)Nc3ccc4c(c3)OCCO4)ccc2N1 [Compound 29, N-(2,3-dihydrobenzo[b][1,4]dioxin-6-yl)-2-oxo-1,2,3,4-tetrahydroquinoline-6-sulfonamide] | 16 | 86 | – |
| O=C1CCc2cc(S(=O)(=O)NCc3ccccc3)ccc2N1 [Compound 30, N-benzyl-2-oxo-1,2,3,4-tetrahydroquinoline-6-sulfonamide] | 14 | 25 | – |
| Cc1ccc(NS(=O)(=O)c2cc3c(cc2F)NC(=O)CC3)cc1C [Compound 31, N-(3,4-dimethylphenyl)-7-fluoro-2-oxo-1,2,3,4-tetrahydroquinoline-6-sulfonamide] | – | – | AC50 (Table 3): 0.92 µM; activation at 57 µM (Table 3): 115% |
| Cc1ccc(NS(=O)(=O)c2cc3c(cc2N(C)C)NC(=O)CC3)cc1C [Compound 32, 7-(dimethylamino)-N-(3,4-dimethylphenyl)-2-oxo-1,2,3,4-tetrahydroquinoline-6-sulfonamide] | – | – | AC50 (Table 3): 0.52 µM; activation at 57 µM (Table 3): 106% |
| CNc1cc2c(cc1S(=O)(=O)Nc1ccc(C)c(C)c1)CCC(=O)N2 [Compound 33, N-(3,4-dimethylphenyl)-7-(methylamino)-2-oxo-1,2,3,4-tetrahydroquinoline-6-sulfonamide] | – | – | AC50 (Table 3): 0.16 µM; activation at 57 µM (Table 3): 53% |
| Cc1ccc(NS(=O)(=O)c2cc3c(cc2N2CCCCC2)NC(=O)CC3)cc1C [Compound 34, N-(3,4-dimethylphenyl)-2-oxo-7-(piperidin-1-yl)-1,2,3,4-tetrahydroquinoline-6-sulfonamide] | – | – | AC50 (Table 3): 15 µM; activation at 57 µM (Table 3): 57% |
